Measured values reported in US5789386A, “Fluorine-containing anthracycline derivatives having hydroxyl groups(s) mono- or di-o-aminoalkanoylated in the sugar moiety thereof” (priority 1995, dated 1998).
≈ marks a conversion by molar mass, not a printed value. Where two headings read alike, the source gives them in different places.

Experiments:
[1] = cited from earlier work
[2] = test system: Leukemia L-1210 cells; experiment: Antitumor test against leukemia L-1210 in CDF1 mice (T/C, %); format: in vivo, mouse (CDF1); settings: for percentage (%) of increase in life-span (T/C, %) at maximum: 2.5 mg/kg/day to 5 mg/kg/day; for percentage (%) of increase in life-span (T/C, %) at maximum / development of toxicity (in words): L-1210 mice; for development of toxicity (in words): adriamycin 2.5 mg/kg/day to 5 mg/kg/day; for % Increase in life-span (T/C, %) / mice cured and surviving for 60 days or longer / mice tested: 9 days
Procedure: Thus, to evaluate the antitumor effects of the new compounds according to the first aspect of this invention against experimental tumors in animals, CDF1 mice (four mice per group) were intraperitoneally transplanted with cells of Leukemia L-1210 at an amount of 1×10^5 cells/mouse. Since an elapsed time of 24 hours from the transplantation of the leukemia cells, a test compound according to this invention was administered intraperitoneally to the mice under test for 9 consecutive days once per day. […] While, mice of the control group (the untreated group) were administered with only physiological saline after the transplantation of the L-1210 cells. During the observation period, the numbers of the surviving mice in the treated group and in the control group were counted, and the mean survival days of mice in the treated group and in the control group were then calculated. From the mean survival day (C) of the untreated mice of the control group and the mean survival day (T) of the treated mice of the treated group, there were evaluated percentages (%) of the increase in the life-span of the treated mice, as T/C %. For a comparison purpose, 7-O-(2,6-dideoxy-2-fluoro-α-L-talopyranosyl)daunomycinone (abbreviation: FT-DM); 7-O-(2,6-dideoxy-2-fluoro-α-L-talopyranosyl)adriamycinone(abbreviation: FT-ADM); and adriamycin were also tested in the same manner as above. Incidentally, the mean survival day of mice of the control group (the untreated group) was amounting to 8 to 9 days, and the mean survival day of mice of the comparative groups having received the administration of adriamycin was varying dependently on the dosage of adriamycin.
Notes; Asterisks (*) indicate that development of toxicity such as
toxicityrelated death or a body weight loss was observed on the
corresponding mice tested.

[3] = test system: mouse leukemia, P388 cells; experiment: In vitro growth inhibition of P388 cells, 72 hours; format: cell-based; settings: P388, 72 h
[4] = test system: adriamycin-resistant P388 cells (P388/ADR); experiment: In vitro growth inhibition of adriamycin-resistant P388 cells (P388/ADR), 72 hours; format: cell-based; settings: Mus musculus
[5] = test system: experimental tumors; settings: test animals; background, earlier applications; cited from earlier work
[6] = low dosages which give high antitumor effects; test animals; cited from earlier work
[7] = 0.3 mg/kg/day i.p., ">" = at least one of four mice survived 60 days or longer
[8] = 0.6 mg/kg/day i.p., ">" = at least one of four mice survived 60 days or longer
[9] = 1.25 mg/kg/day i.p., ">" = at least one of four mice survived 60 days or longer
[10] = 2.5 mg/kg/day i.p., ">" = at least one of four mice survived 60 days or longer
[11] = 5 mg/kg/day i.p., ">" = at least one of four mice survived 60 days or longer

Compound | serious side-effects (in words) ([1]; in vivo) | percentage (%) of increase in life-span (T/C, %) at maximum [2] | development of toxicity (in words) ([2]; daunomycin) | serious side-effects (in words) ([1]; clinical use, many instances) | IC50 [3] [µg/mL] | IC50 ([4]; 72 h) [µg/mL] | % Increase in life-span (T/C, %) ([2]; 0.15 mg/kg/day i.p.) [%] | % Increase in life-span (T/C, %) [2, 7] [%] | % Increase in life-span (T/C, %) [2, 8] [%] | % Increase in life-span (T/C, %) [2, 9] [%] | % Increase in life-span (T/C, %) [2, 10] [%] | % Increase in life-span (T/C, %) [2, 11] [%] | anticancer or antitumor activity (in words) [5] | development of acute toxicity (in words) [6] | IC50 ([4]; 72 hours, test compounds as trifluoroacetate, read-out: IC50) [µg/mL] | mice cured and surviving for 60 days or longer / mice tested ([2]; 0.6 mg/kg/day i.p.) | mice cured and surviving for 60 days or longer / mice tested ([2]; 1.25 mg/kg/day i.p.) | mice cured and surviving for 60 days or longer / mice tested ([2]; 2.5 mg/kg/day i.p.) | mice cured and surviving for 60 days or longer / mice tested ([2]; 5 mg/kg/day i.p.) | antitumor activities (in words) ([2]; compared with FT-DM, FT-ADM, daunomycin, adriamycin or another test compound)
COc1cccc2c1C(=O)c1c(O)c3c(c(O)c1C2=O)C[C@@](O)(C(C)=O)C[C@@H]3O[C@H]1C[C@H](N)[C@H](O)[C@H](C)O1 [daunomycin, reference compound] | serious side-effects such as leukocytopenia, alopecia, myocardiopathy and others | approximately 330% | being accompanied by development of toxicity | – | – | – | – | – | – | – | – | – | – | – | – | – | – | – | – | –
COc1cccc2c1C(=O)c1c(O)c3c(c(O)c1C2=O)C[C@@](O)(C(=O)CO)C[C@@H]3O[C@H]1C[C@H](N)[C@H](O)[C@H](C)O1 [Adriamycin, adriamycin, reference compound] | – | approximately 330% | being accompanied by development of toxicity | serious side-effects such as leukocytopenia, alopecia, myocardiopathy and others | 0.033 (≈ 0.0607 µM) | 1.3 (≈ 2.39 µM) | 140 | 132 | 208 | 330 | 273 | 177 | – | – | – | – | – | – | – | –
COc1cccc2c1C(=O)c1c(O)c3c(c(O)c1C2=O)C[C@@](O)(C(=O)CO)C[C@@H]3O[C@H]1C[C@H](O)[C@H](O)[C@H](C(F)(F)F)O1 [formula (D), 7-O-(2,6-dideoxy-6,6,6-trifluoro-α-L-lyxo-hexopyranosyl)adriamycinone] | – | – | – | – | – | – | – | – | – | – | – | – | high anticancer or antitumor activity | development of acute toxicity does not take place | – | – | – | – | – | –
COc1cccc2c1C(=O)c1c(O)c3c(c(O)c1C2=O)C[C@@](O)(C(=O)CO)C[C@@H]3O[C@@H]1O[C@@H](C)[C@@H](OC(=O)[C@H](C)N)[C@@H](OC(=O)[C@H](C)N)[C@H]1F [Compound 11b, 7-O-(3,4-di-O-L-alanyl-2,6-dideoxy-2-fluoro-α-L-talopyranosyl)adriamycinone] | – | – | – | – | < 0.0098 | – | 115 | 144 | > 361 | > 407 | > 666 | > 502 | – | – | 0.31 (≈ 0.44 µM) | 1/4 | 1/4 | 2/4 | 2/4 | a little inferior to the antitumor activities of said mixture of Compounds 8b and 9b but are yet considerably high antiumor activities
